Test results taken from patent EP1143981B1, “USE OF N-GLYCOLNEURAMINIC ACID AND ITS DERIVATIVES FOR THE MANUFACTURE OF A MEDICAMENT FOR THE TREATMENT OF HIV INFECTIONS” (Glukor, Inc., priority 1998, dated 2000).

Columns and labels:
Format in all cases: cell-based
HIV-1III B [1] = assay: HIV-1 P24 output, test solution mixed with virus, PBMCs infected overnight; conditions: day 9
Description: Example 4-Specificity of Inhibition: Research grade purified d-Galactose (CAT# g404, lot 117H00431, FW 180.2, Sigma Chemical Co., St. Louis, MO) was dissolved in saline at a concentration of 5mg/ml. The solution was allowed to stand at room temperature for 15 minutes and mixed by vortex until the galactose was completely dissolved. The galactose solution was divided into two equal aliquots. Stabilizing solution (0.1 ml) was added to one aliquot, then vortexed and incubated at room temperature for 30 minutes. After mixing again, the mixture was centrifuged at 1500g for 30 minutes and the supernatant was filtered through a 0.2µm filter and transferred to a sterile 15 ml tube. The solution was sterilized by gamma radiation (2.5 mega RADs) with 15 minutes exposure. The aliquot without the stabilizing solution was labeled "1A" and the aliquot containing the stabilized solution was labeled "1B". […] Each of the test solutions were diluted 1:20 1:40,1:80, and 1:160 in saline. Control solutions were water.
One ml of each of the dilutions of the test solution or control was mixed with an equal volume of HIV-1III B (~50 TCID50 /2x10^5 cells) to infect activated human PBMCs overnight at 37°C (3x10^5 cells/dilution). HIV-1III B is a laboratory-adapted strain. The cells then were washed and placed in culture media containing the indicated dilution of the test solution in triplicate wells (1x10^3 cells per well, ½ medium changes with media containing the indicated dilutions of test solution were made at ~3 day intervals). The conditioned media were tested for HIV-1 P24 output on day 9 using the DuPont P24 assay kit. The control was infected PBMCs in the absence of test solutions. Results are shown in Table 9 and are measured as the Inhibition% of the control. […]

HIV-1III B [2] = assay: as above; conditions: Dilution 1:10 of 5mg/ml solution, day 9
X4 strain LAI/IIIB = assay: RT activity in infected PBMCs over 20 days post-infection
Description: Reverse Transcriptase Activity Assay: A microtiter based reverse transcriptase (RT) reaction was utilized as described by Buckheit et al., (1991), AIDS Research and Human Retroviruses, 7:295-302. Tritiated thymidine triphosphate (^3H-TTP) was suspended in distilled H2O at 5 Ci/mL. Poly rA and oligo dT were prepared as a stock solution which was kept at -20°C. RT reaction buffer was prepared fresh on a daily basis and contained 125 µL 1M EGTA, 125 µL dH2O, 110 µL 10% SDS, 50 µL 1M Tris (pH 7.4), 50 µL 1M DTT, and 40 µL 1M MgCl2. These three solutions were mixed together in a ratio of 2 parts ^3H-TTP, 1 part poly rA:oligo dT, and 1 part reaction buffer. Ten microliters of this reaction mixture were placed in a round bottom microtiter plate and 15 µL of virus containing supernatant were added and mixed. The plate was incubated at 37°C in a water bath with a solid support to prevent submersion of the plate and incubated for 60 minutes. After the incubation period, the reaction volume was spotted onto pieces of DE81 paper, washed 5 times for 5 minutes each in a 5% sodium phosphate buffer, 2 times for 1 minute each in distilled water, 2 times for 1 minute each in 70% ethanol, and then dried. Opti-Fluor-O (Packard) was added to each sample and incorporated radioactivity was quantified utilizing a Wallac 1450 MicroBeta Plus liquid scintillation counter. Plates were screened with tetrazolium dye staining as described above.
PBMCs were treated with dilutions of LUKOR of 1:4, 1:20, 1:100, 1:500, or 1:2500, or concentrations ofN-glycolylneuraminic acid or N-acetylneuraminic acid of 0.4, 1.2, 3.6, 11, or 33µg/ml. No carbohydrates were added to the control sample. RT activity was determined at 3, 6, 9,13, 17, and 20 days post-infection (PI) with X4 strain LAI/IIIB.

HIV-1 IIIB [3] = assay: HIV-1 P24 output, repeat with stored solutions, 3 hours infection; conditions: day 6
Description: The test was repeated using test solutions stored at 4°C. In this experiment, the dilutions were mixed with HIV-1 IIIB virus at the time of infecting the activated human PBMCs for 3 hours. The cells then were washed and incubated in triplicate wells (1x10^3 cells/well) in the presence of the indicated dilution of the test solution. One half media changes included the test solution dilutions. Conditioned media were tested for P24 output by the antigen capture assay on day 6. Results are shown in Table 10 and are presented as the inhibition % of control (no carbohydrate added).

HIV-1 IIIB [4] = assay: HIV-1 P24 output, test solutions added post infection
Description: In addition, a similar experiment was performed, except that test solutions were added post infection, at the time of plating into the triplicate wells.

[5] = Dilution 1:10, solutions stored at 4°C
[6] = Dilution 1:20, solutions stored at 4°C
[7] = Dilution 1:40, solutions stored at 4°C
[8] = Dilution 1:80, solutions stored at 4°C
[9] = Dilution 1:160, solutions stored at 4°C
[10] = Dilution 1:10, added post infection
[11] = Dilution 1:20, added post infection
[12] = Dilution 1:20, repeat with further dilutions (Table 12)
[13] = Dilution 1:40, added post infection
[14] = Dilution 1:80, added post infection
[15] = Dilution 1:100, repeat with further dilutions (Table 12)
[16] = Dilution 1:160, added post infection
[17] = Dilution 1:1000, repeat with further dilutions (Table 12)

What does the source list for d-Galactose [1A]?
P24 output, Inhibition% of the control (HIV-1III B [1]; Dilution 1:20): 5%; P24 output, Inhibition% of the control (HIV-1III B [1]; Dilution 1:40): 4%; P24 output, Inhibition% of the control (HIV-1III B [1]; Dilution 1:80): 2%; P24 output, Inhibition% of the control (HIV-1III B [1]; Dilution 1:160): 2%; P24 output, Inhibition% of the control (HIV-1III B [2]): 4%

Which results are given for d-Galactose [1B]?
P24 output, Inhibition% of the control (HIV-1III B [1]; Dilution 1:20): 5%; P24 output, Inhibition% of the control (HIV-1III B [1]; Dilution 1:40): 3%; P24 output, Inhibition% of the control (HIV-1III B [1]; Dilution 1:80): 4%; P24 output, Inhibition% of the control (HIV-1III B [1]; Dilution 1:160): 2%; P24 output, Inhibition% of the control (HIV-1III B [2]): 7%

Which results are given for CC(=O)N[C@H]1[C@H]([C@H](O)[C@H](O)CO)OC(O)(C(=O)O)C[C@@H]1O (some centres unmarked) [N-acetylneuraminic acid, reference compound]?
RT Activity (X4 strain LAI/IIIB; 0.4 µg/ml, 3 days PI): 89; RT Activity (X4 strain LAI/IIIB; 0.4 µg/ml, 6 days PI): 129; RT Activity (X4 strain LAI/IIIB; 0.4 µg/ml, 9 days PI): 878; RT Activity (X4 strain LAI/IIIB; 0.4 µg/ml, 13 days PI): 2703; RT Activity (X4 strain LAI/IIIB; 0.4 µg/ml, 17 days PI): 1615; RT Activity (X4 strain LAI/IIIB; 0.4 µg/ml, 20 days PI): 812; RT Activity (X4 strain LAI/IIIB; 3.6 µg/ml, 3 days PI): 83; RT Activity (X4 strain LAI/IIIB; 3.6 µg/ml, 6 days PI): 508; RT Activity (X4 strain LAI/IIIB; 3.6 µg/ml, 9 days PI): 1902; RT Activity (X4 strain LAI/IIIB; 3.6 µg/ml, 13 days PI): 1892; RT Activity (X4 strain LAI/IIIB; 3.6 µg/ml, 17 days PI): 1260; RT Activity (X4 strain LAI/IIIB; 3.6 µg/ml, 20 days PI): 836; RT Activity (X4 strain LAI/IIIB; 11 µg/ml, 3 days PI): 43; RT Activity (X4 strain LAI/IIIB; 11 µg/ml, 6 days PI): 75; RT Activity (X4 strain LAI/IIIB; 11 µg/ml, 9 days PI): 799; RT Activity (X4 strain LAI/IIIB; 11 µg/ml, 13 days PI): 2047; RT Activity (X4 strain LAI/IIIB; 11 µg/ml, 17 days PI): 2990; RT Activity (X4 strain LAI/IIIB; 11 µg/ml, 20 days PI): 1171; RT Activity (X4 strain LAI/IIIB; 33 µg/ml, 3 days PI): 36; RT Activity (X4 strain LAI/IIIB; 33 µg/ml, 6 days PI): 53; RT Activity (X4 strain LAI/IIIB; 33 µg/ml, 9 days PI): 165; RT Activity (X4 strain LAI/IIIB; 33 µg/ml, 13 days PI): 442; RT Activity (X4 strain LAI/IIIB; 33 µg/ml, 17 days PI): 1273; RT Activity (X4 strain LAI/IIIB; 33 µg/ml, 20 days PI): 1526; RT activity in treated cells (summary in words) (X4 strain LAI/IIIB; all dilutions/concentrations, 3-20 days PI): decreased RT activity was observed only with high concentrations

Which “P24 output, Inhibition% of the control” value (HIV-1III B [1]; Dilution 1:20) does the source give for OC[C@H]1O[C@H](O[C@H]2[C@@H](O)[C@@H](CO)OC(O)[C@@H]2O)[C@H](O)[C@@H](O)[C@H]1O (stereo partly drawn) [3AA, galactose-α 1,3-galactose] here?
The value was 3.6%.

What about the “P24 output, Inhibition% of the control” value (HIV-1III B [1]; Dilution 1:40) of the same compound?
Its value is 2.2%.

And the “P24 output, Inhibition% of the control” value (HIV-1III B [1]; Dilution 1:80)?
The value was 1.4%.

What about the “P24 output, Inhibition% of the control” value (HIV-1III B [1]; Dilution 1:160) of the same compound?
The value was 0.4%.

What about the “P24 output, Inhibition% of the control” value (HIV-1III B [2]) of the same compound?
Its value is 4.3%.

With O=C(CO)N[C@H]1[C@H]([C@H](O)[C@H](O)CO)OC(O)(C(=O)O)C[C@@H]1O (single isomer, unassigned) [2B, N-glycolylneuraminic acid] as the compound, how does the “Inhibition % of Control” value (HIV-1 IIIB [3]; [5]) read?
The value was 88%.

What about the “Inhibition % of Control” value (HIV-1 IIIB [3]; [6]) of the same compound?
The value was 74%.

What about the “Inhibition % of Control” value (HIV-1 IIIB [3]; [7]) of the same compound?
The value was 59%.

And the “Inhibition % of Control” value (HIV-1 IIIB [3]; [8])?
Its value is 44%.

And the “Inhibition % of Control” value (HIV-1 IIIB [3]; [9])?
Its value is 13%.

And the “Inhibition % of Control” value (HIV-1 IIIB [4]; [10])?
The value was 82%.

And the “Inhibition % of Control” value (HIV-1 IIIB [4]; [11])?
Its value is 70%.

And the “Inhibition % of Control” value (HIV-1 IIIB [4]; [12])?
The value was 78%.

What about the “Inhibition % of Control” value (HIV-1 IIIB [4]; [13]) of the same compound?
Its value is 61%.

And the “Inhibition % of Control” value (HIV-1 IIIB [4]; [14])?
The value was 26%.

And the “Inhibition % of Control” value (HIV-1 IIIB [4]; [15])?
Its value is 42%.

What about the “Inhibition % of Control” value (HIV-1 IIIB [4]; [16]) of the same compound?
The value was 15%.

And the “Inhibition % of Control” value (HIV-1 IIIB [4]; [17])?
The value was 1%.

And the “P24 output, Inhibition% of the control” value (HIV-1III B [1]; Dilution 1:20)?
Its value is 81%.

What about the “P24 output, Inhibition% of the control” value (HIV-1III B [1]; Dilution 1:40) of the same compound?
Its value is 61%.

What about the “P24 output, Inhibition% of the control” value (HIV-1III B [1]; Dilution 1:80) of the same compound?
The value was 37%.

What about the “P24 output, Inhibition% of the control” value (HIV-1III B [1]; Dilution 1:160) of the same compound?
The value was 16%.

What about the “P24 output, Inhibition% of the control” value (HIV-1III B [2]) of the same compound?
Its value is 93%.

What does the source list for O=C(CO)N[C@H]1[C@H]([C@H](O)[C@H](O)CO)OC(O)(C(=O)O)C[C@@H]1O (single isomer, unassigned) [2A, N-glycolylneuraminic acid]?
Inhibition % of Control (HIV-1 IIIB [3]; [5]): 96%; Inhibition % of Control (HIV-1 IIIB [3]; [6]): 78%; Inhibition % of Control (HIV-1 IIIB [3]; [7]): 62%; Inhibition % of Control (HIV-1 IIIB [3]; [8]): 47%; Inhibition % of Control (HIV-1 IIIB [3]; [9]): 17%; Inhibition % of Control (HIV-1 IIIB [4]; [10]): 95%; Inhibition % of Control (HIV-1 IIIB [4]; [11]): 75%; Inhibition % of Control (HIV-1 IIIB [4]; [12]): 88%; Inhibition % of Control (HIV-1 IIIB [4]; [13]): 66%; Inhibition % of Control (HIV-1 IIIB [4]; [14]): 30%; Inhibition % of Control (HIV-1 IIIB [4]; [15]): 55%; Inhibition % of Control (HIV-1 IIIB [4]; [16]): 16%; Inhibition % of Control (HIV-1 IIIB [4]; [17]): 7%; P24 output, Inhibition% of the control (HIV-1III B [1]; Dilution 1:20): 78%; P24 output, Inhibition% of the control (HIV-1III B [1]; Dilution 1:40): 66%; inhibition at 5000 µg/mL (stock) (HIV-1III B [2]; Human immunodeficiency virus 1, PBMC, 216 h, read-out: P24 output, Inhibition% of the control): 94%
